Reference: patent publication US12116358B2, “Substituted indoles and methods of use thereof” (EPIZYME, INC., priority 2018, dated 2024)
Where two headings read alike, the source gives them in different places.

Key:
SETD2(1434-1711) = target: T1, SETD2(1434-1711) (Homo sapiens, UniProt Q9BYW2); assay: SETD2 (1434-1711) assay; format: biochemical; settings: read-out: SETD2 (1434-1711)
T1 construct: SETD2 (1434-1711) Assay; catalogue N/A
T1 sequence (Q9BYW2 1434-1711): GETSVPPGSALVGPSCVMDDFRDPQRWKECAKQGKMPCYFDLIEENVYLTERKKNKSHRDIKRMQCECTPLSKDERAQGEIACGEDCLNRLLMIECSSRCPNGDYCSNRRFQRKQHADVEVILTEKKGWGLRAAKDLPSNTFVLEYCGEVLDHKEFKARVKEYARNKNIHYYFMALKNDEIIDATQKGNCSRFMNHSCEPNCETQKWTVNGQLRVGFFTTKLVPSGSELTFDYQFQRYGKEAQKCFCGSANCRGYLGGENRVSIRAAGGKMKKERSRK

H3K36me3 in A549 cells = assay: In-Cell Western (ICW) assay of SETD2 inhibitors (A549 assay); format: cell-based, human; settings: A549 cells, read-out: SETD2 A549
Method in brief: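 A549 cells seeded at 4,000/well onto compound and incubated 3 days at 37° C. Methanol-fixed cells stained overnight at 4° C with anti-H3K36me3 (1:1000), then IRDye 800CW secondary with DRAQ5 DNA counterstain. Plates read by Licor imaging at 700 and 800 channels.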

SMILES	IC50 (SETD2(1434-1711)) [nM]	IC50 (H3K36me3 in A549 cells) [nM]	IC50 (H3K36me3 in A549 cells; Homo sapiens) [nM]
Cc1ccc(F)c2cc(C(=O)NC3CCCC(N4CCn5c(nn(C)c5=O)C4)C3)[nH]c12 (stereo not shown) [compound 1142]	4800	> 2000	
Cc1ccc(F)c2cc(C(=O)Nc3cccc(N4CCOCC4C4CC4)c3)[nH]c12 (stereo not shown) [compound 306]	400		1200
Cc1ccc(F)c2cc(C(=O)Nc3cccc(-c4ncn[nH]4)c3)[nH]c12 [compound 304]	300	1200	
CC(=O)N1CCCN([C@@H]2CCC[C@@H](NC(=O)c3cc4c(F)ccc(C)c4[nH]3)C2)CC1 [compound 980]	900		> 2000
Cc1ccc(F)c2cc(C(=O)Nc3cccc(N4CC[C@@H](N(C)C)C4)c3)[nH]c12 [compound 94]	20	200	
Cc1ccc(F)c2cc(C(=O)Nc3cccc(N4CCOCC4CN(C)C)c3)[nH]c12 (stereo not shown) [compound 468]	900		7500
Cc1ccc(F)c2cc(C(=O)Nc3cc(F)cc([C@H]4CC[C@H](N5CCOCC5)CC4)c3)[nH]c12 [compound 353]	100	> 2000	
CC(=O)N1CCC(c2cccc(NC(=O)c3cc4c(F)ccc(C)c4[nH]3)c2)CC1 [compound 45]	30		100
Cc1cc(Cn2cc[nH]c2=O)cnc1C(NC(=O)c1cc2c(F)ccc(C)c2[nH]1)C1CC1 (stereo not shown) [compound 273]	200		800
Cc1ccc(F)c2cc(C(=O)NC3CCCC(N4CCC5(CC4)COC(=O)N5)C3)[nH]c12 (stereo not shown) [compound 964]	500	> 2000	
Cc1nc([C@H]2CCC[C@@H](NC(=O)c3cc4c(F)ccc(C)c4[nH]3)C2)no1 [compound 1011]	300		900
Cc1ccc(F)c2cc(C(=O)Nc3cccc(-c4cn[nH]c4)c3)[nH]c12 [compound 252]	200	600	
CNC(=O)N1CCN(c2cccc(NC(=O)c3cc4c(F)ccc(C)c4[nH]3)c2)CC1 [compound 139]	50		300
Cc1ccc(F)c2cc(C(=O)Nc3cccc(N4CCC5(CCCN5CC(F)F)CC4)c3)[nH]c12 [compound 142]	40		300
Cc1ccc(F)c2cc(C(=O)N[C@@H]3CCC[C@H](N4CCN(C(=O)C5COC5)CC4)C3)[nH]c12 [compound 918]	20		100
Cc1ccc(F)c2cc(C(=O)Nc3cccc(C4CCCN4)c3)[nH]c12 (stereo not shown) [compound 425]	300	3900	
CC(=O)N1CCN(C2CC(NC(=O)c3cc4c(F)ccc(C)c4[nH]3)CN(C)C2)CC1 (stereo not shown) [compound 360]	1200	> 2000	
Cc1cccnc1C(CCC(=O)N1CCC(O)CC1)NC(=O)c1cc2cccc(C)c2[nH]1 (stereo not shown) [compound 434]	4300	4600	
Cc1ccc(F)c2cc(C(=O)Nc3cccc(N4CC[C@@H](N(C)C)[C@@H](F)C4)c3)[nH]c12 [compound 301]	100		1200
COC(=O)CC(NC(=O)c1cc2cccc(C)c2[nH]1)c1ccc(C#N)cc1 (stereo not shown) [compound 527]	14700	24200	
Cc1ccc(F)c2cc(C(=O)NC3CCCC(N4CCN5C(=O)COCC5C4)C3)[nH]c12 (stereo not shown) [compound 1139]	500	1700	
Cc1cn(Cc2cnc(C(NC(=O)c3cc4c(F)ccc(C)c4[nH]3)C3CC3)c(C)c2)c(C)n1 (stereo not shown) [compound 317]	100		1400
Cc1ccc(F)c2cc(C(=O)Nc3ccc4cnc(CN5CCN(C)CC5)cc4c3)[nH]c12 [compound 409]	100	3000	
Cc1ccc(F)c2cc(C(=O)Nc3cccc(C4CNC(=O)C4)c3)[nH]c12 (stereo not shown) [compound 177]	100		400

SMILES	IC50 (SETD2(1434-1711)) [nM]	IC50 (H3K36me3 in A549 cells) [nM]	IC50 (H3K36me3 in A549 cells; Homo sapiens) [nM]
Cc1ccc(F)c2cc(C(=O)Nc3cccc(N4CCC(C(C)C)CC4)c3)[nH]c12 [compound 336]	400	1600	
Cc1ccc(F)c2cc(C(=O)NC3CCCC(N4CCN5C(=O)OCC5C4)C3)[nH]c12 (stereo not shown) [compound 1135]	20	70	
Cc1cccnc1C(CC1CC1)NC(=O)c1cc2cccc(C)c2[nH]1 (stereo not shown) [compound 500]	3000	14500	
Cc1ccc(F)c2cc(C(=O)Nc3cccc(N4CCN(S(C)(=O)=O)CC4)c3)[nH]c12 [compound 176]	100		300
Cc1ccc(F)c2cc(C(=O)Nc3cccc(C4CCC5C(CCN5C)C4)c3)[nH]c12 (stereo not shown) [compound 294]	30		1100
Cc1cccnc1C(C)NC(=O)c1cc2cccc(C)c2[nH]1 (stereo not shown) [compound 480]	7000		9500
Cc1ccc(F)c2cc(C(=O)Nc3cccc(N4CCC(N(C)C)(C(F)(F)F)CC4)c3)[nH]c12 [compound 375]	> 10000	> 2000	
Cc1ccc(F)c2cc(C(=O)NC3CCCC(N4CCCOCC4)C3)[nH]c12 (stereo not shown) [compound 388]	> 10000	> 2000	
Cc1cc(C(=O)NC2CCN(C)CC2)cnc1C(NC(=O)c1cc2c(F)ccc(C)c2[nH]1)C1CC1 (stereo not shown) [compound 412]	100	3100	
Cc1ccc(F)c2cc(C(=O)Nc3cccc(N4CCN(C(C)c5ccccc5)CC4)c3)[nH]c12 (stereo not shown) [compound 417]	900	3400	
Cc1cc(CC(=O)N2CCN(C)CC2)cnc1C(NC(=O)c1cc2cccc(C)c2[nH]1)C1CC1 (stereo not shown) [compound 441]	4400	5100	
CC(=O)N(CCO)C1CCN([C@H]2CCC[C@@H](NC(=O)c3cc4c(F)ccc(C)c4[nH]3)C2)C1 (stereo partly shown) [compound 872]	100		1200
Cc1ccc(F)c2cc(C(=O)Nc3cccc(C4CCNC4)c3)[nH]c12 (stereo not shown) [compound 283]	40		1000
Cc1cc(N2CCN(CCCc3cccnc3)CC2)cnc1C(NC(=O)c1cc2cccc(C)c2[nH]1)C1CC1 (stereo not shown) [compound 440]	800		5000
Cc1ccc(F)c2cc(C(=O)Nc3cccc(N4CCOc5ccccc54)c3)[nH]c12 [compound 547]	4000	> 25000	
Cc1ccc(F)c2cc(C(=O)Nc3cccc(N4CCC(O)(C5CCN(C)CC5)CC4)c3)[nH]c12 [compound 268]	60		700
CC(=O)N(C)C1CCCN(c2cccc(NC(=O)c3cc4c(F)ccc(C)c4[nH]3)c2)C1 (stereo not shown) [compound 42]	20	100	
CCN(C1CCN(C2CCCC(NC(=O)c3cc4c(F)ccc(C)c4[nH]3)C2)C1)S(C)(=O)=O (stereo not shown) [compound 1132]	2300	> 2000	
Cc1cccc2cc(C(=O)Nc3ccc4ncncc4c3)[nH]c12 [compound 533]	400	> 25000	
Cc1ccc(F)c2cc(C(=O)NC3CCCC(N4CCNCC4)C3)[nH]c12 (stereo not shown) [compound 956]	100	700	
Cc1ccc(F)c2cc(C(=O)N[C@@H]3CCCC(N4CCC5(CCNC5=O)CC4)C3)[nH]c12 (stereo partly shown) [compound 874]	400		> 2000
COCC(=O)N1CCN([C@@H]2CCC[C@@H](NC(=O)c3cc4c(F)ccc(C)c4[nH]3)C2)CC1 [compound 847]	1000	> 2000	
CC(=O)N1CCN(C2CCC(NC(=O)c3cc4c(F)ccc(C)c4[nH]3)CC2)CC1 (stereo not shown) [compound 383]	> 10000	> 2000	
